# Data taken from paper PMC6201879, “N-substituted phenylbenzamides of the niclosamide chemotype attenuate obesity related changes in high fat diet fed mice” (PLoS ONE, 2018).
# Like-named read-outs stand apart in the source and are kept apart here.
# Key:
# [1] = Metabolic stability in mouse liver microsomes; assay type: in vitro ADME; details: 60 min
# Description: (§1) Three experiments were performed with 1) 0.5mg/ml microsomes and 1mM NADPH, 2) 0.5mg/ml microsomes without NADPH and 3) 0.5mg/ml heat inactivated microsomes without NADPH in 100mM phosphate buffer, containing 5mM magnesium chloride. […] At the indicated time points, 50μl samples were removed and stopped by addition of 4 volumes of cold acetonitrile with internal standards, 100nM alprazolam, 200nM labetalol and 2μM ketoprofen. The samples were centrifuged at 3,220 g for 40 minutes and aliquots of 100μl were subsequently diluted with 100μl of ultra-pure water and analyzed by LC/MS/MS using a (Shimadzu corporation) LC system coupled to a Shimadzu Triple Quad 5500 mass spectrometer with an ESI interface. The LC system used a Waters XSelect HSS T3 C18, 2.5μm, 2.1 x 50 mm column eluted with one of two methods using mobile phases A (water, 0.1% formic acid) and B (acetonitrile, 0.1% formic acid). […] The Shimadzu Triple Quad 5500 MS was operated with the following parameters: Ion source: Turbo spray; Ionization mode: ESI; Scan type: MRM; Collision gas: 10 L/min; Curtain gas: 30 L/min; Nebulize gas: 50 L/min; Auxiliary gas: 50 L/min; Temperature: 500°C; Ionspray voltage: +5500 V (positive MRM). All experiments were performed in duplicate. Data were analyzed using Microsoft excel, and peak areas were determined from extracted ion chromatograms.
# [2] = test system: Salmonella typhimurium TA98; experiment: Ames assay, strain TA98; details: for Mean Revertant Colony Counts TA98 SP9+: with S9; for Mean Revertant Colony Counts TA98 S9-: without S9
# PH5CH8 liver cells = experiment: High-throughput hepatic de novo lipogenesis (DNL) assay, high content imaging of steatotic phenotype; assay type: cell-based, human; details: for IC50: Homo sapiens
# [3] = test system: HEK293 cells stably transduced with the human OCT3 transporter; experiment: Cellular oxygen consumption rate (OCR), MitoXpress Xtra; assay type: cell-based; details: HEK293 cells expressing human OCT3; compared to DMSO control; 2 hours
# How it was run: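 HEK293 cells stably expressing human OCT3, treated with four compound concentrations; oxygen consumption followed by MitoXpress Xtra TR-F lifetime (340/650 nm) every 2 min for 2 h. Lifetime slope from the linear portion taken as OCR; FCCP (1 μM) as stimulated control, differences versus DMSO by t-test.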
# [4] = test system: Salmonella typhimurium TA100; details: for Mean Revertant Colony Counts TA-100 SP9+: with S9; for Mean Revertant Colony Counts TA-100 S9-: without S9
# [5] = Metabolic stability in human liver microsomes; assay type: in vitro ADME
# Description: as §1
# [6] = 0.5mg/ml microsomes and 1mM NADPH
# [7] = 0.5mg/ml microsomes without NADPH
# [8] = heat inactivated microsomes without NADPH
# [9] = any concentration tested, vs negative control
compound,measurement,setting,value
"CC(C)(C)c1ccc(O)c(C(=O)Nc2ccc(C(=O)O)cc2Cl)c1 [Compound 500200, 4-[(5-tert-butyl-2-hydroxybenzene)amido]-3-chlorobenzoic acid]","Remaining Percentage of 60 min (%), Mouse, Tested Sample",[1]; [6],101.2%
same,"Remaining Percentage of 60 min (%), Mouse, Negative Control",[1]; [7],111.5%
same,"Remaining Percentage of 60 min (%), Mouse, Heat-inactivated Control",[1]; [8],102.7%
same,Mean Revertant Colony Counts TA98 SP9+,[2]; 1.5 ug/Well,7.7
same,Mean Revertant Colony Counts TA98 S9-,[2]; 1.5 ug/Well,9.0
same,Mean Revertant Colony Counts TA98 SP9+,[2]; 4 ug/Well,6.3
same,Mean Revertant Colony Counts TA98 S9-,[2]; 4 ug/Well,12.0
same,Mean Revertant Colony Counts TA98 SP9+,[2]; 10 ug/Well,9.0
same,Mean Revertant Colony Counts TA98 S9-,[2]; 10 ug/Well,8.7
same,Mean Revertant Colony Counts TA98 SP9+,[2]; 25 ug/Well,7.3
same,Mean Revertant Colony Counts TA98 S9-,[2]; 25 ug/Well,9.0
same,Mean Revertant Colony Counts TA98 SP9+,[2]; 64 ug/Well,9.0
same,Mean Revertant Colony Counts TA98 S9-,[2]; 64 ug/Well,7.7
same,Mean Revertant Colony Counts TA98 SP9+,[2]; 160 ug/Well,11.0
same,Mean Revertant Colony Counts TA98 S9-,[2]; 160 ug/Well,5.0
same,Mean Revertant Colony Counts TA98 SP9+,[2]; 400 ug/Well,7.0
same,Mean Revertant Colony Counts TA98 S9-,[2]; 400 ug/Well,9.7
same,Mean Revertant Colony Counts TA98 SP9+,[2]; 1000 ug/Well,4.3
same,Mean Revertant Colony Counts TA98 S9-,[2]; 1000 ug/Well,4.3
same,"fold increase in the mean number of revertant colonies, TA98",[2]; [9],< 2 fold
same,IC50,"PH5CH8 liver cells; PH5CH8 liver cells, 10-point dose response between 1μM and 1.9nM, read-out: IC50 (uM), inhibition of steatotic phenotype in DNL assay",0.27 µM
same,IC50,"PH5CH8 liver cells; S1 Table, SAR for N-Substituted Phenylbenzamides, read-out: IC50",0.034 µM
same,Active/Inactive,"PH5CH8 liver cells; S1 Table, SAR for N-Substituted Phenylbenzamides",Active
same,change in respiration / oxygen consumption rate (OCR),[3],no change in respiration
same,Mean Revertant Colony Counts TA-100 SP9+,[4]; 1.5 ug/Well,18.7
same,Mean Revertant Colony Counts TA-100 S9-,[4]; 1.5 ug/Well,32.3
same,Mean Revertant Colony Counts TA-100 SP9+,[4]; 4 ug/Well,19.7
same,Mean Revertant Colony Counts TA-100 S9-,[4]; 4 ug/Well,25.7
same,Mean Revertant Colony Counts TA-100 SP9+,[4]; 10 ug/Well,22.0
same,Mean Revertant Colony Counts TA-100 S9-,[4]; 10 ug/Well,26.7
same,Mean Revertant Colony Counts TA-100 SP9+,[4]; 25 ug/Well,22.0
same,Mean Revertant Colony Counts TA-100 S9-,[4]; 25 ug/Well,28.0
same,Mean Revertant Colony Counts TA-100 SP9+,[4]; 64 ug/Well,20.3
same,Mean Revertant Colony Counts TA-100 S9-,[4]; 64 ug/Well,26.3
same,Mean Revertant Colony Counts TA-100 SP9+,[4]; 160 ug/Well,27.7
same,Mean Revertant Colony Counts TA-100 S9-,[4]; 160 ug/Well,24.0
same,Mean Revertant Colony Counts TA-100 SP9+,[4]; 400 ug/Well,18.3
same,Mean Revertant Colony Counts TA-100 S9-,[4]; 400 ug/Well,29.7
same,Mean Revertant Colony Counts TA-100 SP9+,[4]; 1000 ug/Well,8.0
same,Mean Revertant Colony Counts TA-100 S9-,[4]; 1000 ug/Well,16.3
same,"fold increase in the mean number of revertant colonies, TA100",[4]; [9],< 2 fold
same,"Remaining Percentage of 60 min (%), Human, Tested Sample",[5]; [6],84.5%
same,"Remaining Percentage of 60 min (%), Human, Negative Control",[5]; [7],110.2%
same,"Remaining Percentage of 60 min (%), Human, Heat-inactivated Control",[5]; [8],96.6%
